Reference: publication PMC3394770, “Ipomoelin, a Jacalin-Related Lectin with a Compact Tetrameric Association and Versatile Carbohydrate Binding Properties Regulated by Its N Terminus” (PLoS ONE, 2012)
Like-named read-outs stand apart in the source and are kept apart here.

Key:
[1] = molecular target: T1, IPO (Ipomoelin) (Ipomoea batatas, UniProt P93193); test: isothermal titration calorimetry, one-site fit; format: binding; details: for Kd: read-out: K A(10^3 M^-1) (converted)
T1 construct: full length (residues 1-154), His-tagged, expressed in E. coli BL21(DE3) from pTZ18UH-IPO
T1 sequence (P93193 1-154): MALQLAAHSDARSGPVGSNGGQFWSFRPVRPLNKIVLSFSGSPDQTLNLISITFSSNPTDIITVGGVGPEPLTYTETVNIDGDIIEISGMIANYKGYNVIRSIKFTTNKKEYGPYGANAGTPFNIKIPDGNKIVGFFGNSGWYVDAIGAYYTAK

[2] = molecular target: T2, ΔN10IPO (Ipomoea batatas, UniProt P93193); test: isothermal titration calorimetry, one-site fit; format: binding; details: 20 mM Tris-HCl, 150 mM NaCl pH 7.0, 25 °C; n fixed at 1.0; read-out: K A(10^3 M^-1) (converted)
T2 construct: gene IPO; N-terminal residues 1-10 removed, Histrap-purified, expressed in E. coli BL21(DE3) from pTZ18UH-ΔN10IPO
Description: isothermal titration calorimetry, one-site fit on ΔN10IPO

[3] = molecular target: the molecule itself; test: crystal structure; hanging-drop vapor diffusion at room temperature; apo IPO and co-crystals with Me-Man, Me-Glc and Me-Gal in four space groups; tetramer in the asymmetric unit or by symmetric operations; interface analysed on IPO–Me-Glc with PDBe PISA
[4] = 20 mM Tris-HCl, 150 mM NaCl pH 7.0, 25 °C, n fixed at 1.0

`OC[C@H]1OC(O)[C@H](O)[C@@H](O)[C@@H]1O` (stereo partly drawn) [Glc] was tested, and the KA [1, 4] was 0.32×10^2.

`CO[C@H]1O[C@H](CO)[C@@H](O)[C@H](O)[C@@H]1O` [Me-Man, methyl α-D-mannopyranoside] gave a Kd [2] of 26.4 µM and a Kd [1, 4] of 142 µM.

`CO[C@H]1O[C@H](CO)[C@H](O)[C@H](O)[C@H]1O` [Me-Gal, methyl α-D-galactopyranoside] gave a Kd [1] of 244 µM.

With `OC[C@H]1OC(O)[C@H](O)[C@@H](O)[C@H]1O` (stereo partly drawn) [Gal] the KA [1, 4] was 0.57×10^2.

`CO[C@H]1O[C@H](CO)[C@@H](O)[C@H](O)[C@H]1O` [Me-Glc, methyl α-D-glucopyranoside] gave a Kd [2] of 73.5 µM and a Kd [1, 4] of 498 µM.

`OC[C@H]1OC(O)[C@@H](O)[C@@H](O)[C@@H]1O` (stereo partly drawn) [Man] was tested, and the KA [1, 4] was 1.05×10^2.

B1: Ipomoelin (IPO) (natural protein, UniProt P93193 1-154, looked up)
chain: MALQLAAHSDARSGPVGSNGGQFWSFRPVRPLNKIVLSFSGSPDQTLNLISITFSSNPTDIITVGGVGPEPLTYTETVNIDGDIIEISGMIANYKGYNVIRSIKFTTNKKEYGPYGANAGTPFNIKIPDGNKIVGFFGNSGWYVDAIGAYYTAK
notes: Ipomoelin (IPO), Jacalin-related lectin of sweet potato (Ipomoea batatas cv. Tainung 57); gene GenBank D89823.1, protein GenBank BAA14024.1; monomer of residues 1 to 154; recombinant IPO with a His tag is 17.3 kDa as a monomer and 69.2 kDa as a tetramer; also called wildtype IPO; native IPO; source: E. coli BL21 (DE3), purified (Histrap FF)
For B1, the “stoichiometry N” value [3] was 4.
